Structures are written as SMILES. Where two headings read alike, the source gives them in different places.

The test system of one experiment is TGF-β. Briefly: AlphaScreen SureFire p-SMAD3 (Ser423/425) assay, TGF-β-stimulated cells. Format: cell-based. The settings on record: Mus musculus. An excerpt:
(§1) The p-SMAD-3 (Ser423/425) SureFire® assay has been designed to measure the phosphorylation of endogenous cellular p-SMAD-3 (Ser423/425) in cell lysates and is a system for the screening of both modulators of receptor activation (e.g. agonists and antagonists) as well as agents acting intracellularly, such as small molecule inhibitors of upstream events. The assay will measure p-SMAD-3 (Ser423/425) activation by either cloned or endogenous receptors, and can be applied to primary cells.
(§2) 96-well Assay Protocol for 293FT and RMS13 adherent cells can be carried out manually or in high throughput with liquid handling robots.
(§3) The cells (80 μL of cells for 96 well plates) were plated in collagen coated tissue culture plates in RPMI or FreeStyle medium (Invitrogen) and incubated overnight. For manual analysis, 6 plates for GDF8, 6 plates for TGFβ, and optionally 6 plates for Alk5ca(ALK5 constitutively active) were used.
(§4) The compound dilution plates were prepared as follows: 12 μL of DMSO was transferred into first column of 96-well plate, and 16 μL of DMSO was transferred into columns 2-12 of the 96-well plate. 12 μL of compound solution was transferred into first column of the DMSO-containing 96-well plate. Three-fold dilution was performed up to column 10 of the DMSO-containing 96-well plate.
(§5) The plate containing cells were treated with compounds for about 10 minutes, and then ligand was added. GDF8 or TGFb was added to plates to stimulate. 293FL cells were stimulatedfor 90 minutes at 37° C.; and RMS13 cells were stimulated for 60 minutes at 37° C. The medium was then removed from the cells, and 1× Lysis Buffer (about 25 μL) was added and the plate was gently agitated on plate shaker for 5-10 minutes.
(§6) The lysate (5 μL) was then placed into 384-well shallow plates avoiding the generation of bubbles. To this, the Reaction Buffer+Activation Buffer+AlphaScreen® Acceptor beadsmixture (5 μL) was added. The plate was sealed with adhesive cover and shielded from light (e.g., with metal foil), and agitated gently on plate shaker for 2 hours at room temperature.
(§7) Dilution buffer+AlphaScreen® Donor beads (2 μL) was then added, and the plate was intubated on the plate shaker for an additional 1½ hours. After completion, the plate was read on Synergy-4 or Enspire plate reader, using AlphaScreen® pSMAD3® settings.
(§8) Representative results for inhibition of GDF8 (data=GDF pSMAD (MPC11) (μM)) and TGF-β (data=TGF-β pSMAD (MPC-11) (μM)) signaling are shown in Table 1(A=<0.05 μM, B=0.05−<0.1 μM, C=0.1−<1.0 μM, D=>1.0 μM): […]

A further experiment has as its system GDF8. Briefly: AlphaScreen SureFire p-SMAD3 (Ser423/425) assay, GDF8-stimulated cells. It is filed as cell-based. The settings on record: Mus musculus, MPC-11; p-SMAD3 (Ser423/425) AlphaScreen in cell lysate; MPC11; GDF8 stimulation; read-out: GDF8: inhibition of GDF8 signaling, GDF pSMAD (MPC11).
Text: as §1, §2, §3, §4, §5, §6, §7, §8

The mark [1] stands for this setting: p-SMAD3 (Ser423/425) AlphaScreen in cell lysate, MPC-11, TGF-β stimulation, read-out: TGF-β: inhibition of TGF-β signaling, TGF-β pSMAD (MPC-11).

Take `Cc1cccc(-c2nc3n(c2-c2ccc4nccn4c2)CCC3)c1` [Compound 1, 6-(2-(m-tolyl)-6,7-dihydro-5H-pyrrolo[1,2-a]imidazol-3-yl)imidazo[1,2-c]pyridine]: the results for the IC50 with TGF-β (setting [1]) and in the experiment on GDF8 were 100 to 1000 nM and 50 to 100 nM, respectively. For `Fc1ccc(-c2nc3n(c2-c2ccc4nccn4c2)CCC3)cc1` [Compound 2], in that order: 100 to 1000 nM and 100 to 1000 nM. For `Cc1cc(-c2nc3n(c2-c2ccc4nccn4c2)CCC3)ccc1F` [Compound 3, 6-(2-(4-fluoro-3-methylphenyl)-6,7-dihydro-5H-pyrrolo[1,2-a]imidazol-3-yl)imidazo[1,2-a]pyridine], in that order: 100 to 1000 nM and 50 to 100 nM. Take `FC(F)(F)c1cccc(-c2nc3n(c2-c2ccc4nccn4c2)CCC3)c1` [Compound 4]: the IC50 with TGF-β (setting [1]) and in the experiment with GDF8 was 100 to 1000 nM throughout. On to `COc1cccc(-c2nc3n(c2-c2ccc4nccn4c2)CCC3)c1` [Compound 5], for which the IC50 in the experiment on TGF-β (setting [1]) and in the experiment on GDF8 was 100 to 1000 nM throughout.

Regarding `Clc1cccc(-c2nc3n(c2-c2ccc4nccn4c2)CCC3)c1` [Compound 6, 6-(2-(3-chlorophenyl)-6,7-dihydro-5H-pyrrolo[1,2-a]imidazol-3-yl)imidazo[1,2-a]pyridine], the IC50 with TGF-β (setting [1]) and in the experiment with GDF8 was 100 to 1000 nM each time.

Take `Fc1cccc(-c2nc3n(c2-c2ccc4nccn4c2)CCC3)c1` [Compound 7, 6-(2-(3-fluorophenyl)-6,7-dihydro-5H-pyrrolo[1,2-c]imidazol-3-yl)imidazo[1,2-c]pyridine]: the IC50 with TGF-β (setting [1]) is more than 1000 nM; with GDF8, 100 to 1000 nM. For `Fc1ccccc1-c1nc2n(c1-c1ccc3nccn3c1)CCC2` [Compound 8], in that order: 100 to 1000 nM and 100 to 1000 nM. Taken in the same sequence, the figures for `Fc1ccc(-c2nc3n(c2-c2ccc4nccn4c2)CCC3)c(F)c1` [Compound 9] were 100 to 1000 nM and less than 50 nM.

Turning to `Fc1ccc(-c2nc3n(c2-c2ccc4nccn4c2)CCC3)cc1F` [Compound 10], the IC50 is more than 1000 nM in the experiment with TGF-β (setting [1]) and 100 to 1000 nM in the experiment on GDF8. For `Fc1cccc(F)c1-c1nc2n(c1-c1ccc3nccn3c1)CCC2` [Compound 11], in that order: more than 1000 nM and 100 to 1000 nM. Turning to `Fc1cc(F)c(-c2nc3n(c2-c2ccc4nccn4c2)CCC3)cc1F` [Compound 12], the IC50 in the experiment with TGF-β (setting [1]) is 100 to 1000 nM; with GDF8, less than 50 nM.

Turning to `Fc1cc(-c2nc3n(c2-c2ccc4nccn4c2)CCC3)cc(F)c1F` [Compound 13], the IC50 is more than 1000 nM in the experiment on TGF-β (setting [1]) and 100 to 1000 nM with GDF8.

In the case of `Fc1cc(F)c(-c2nc3n(c2-c2ccc4ncnn4c2)CCC3)cc1F` [Compound 14, 6-(2-(2,4,5-trifluorophenyl)-6,7-dihydro-5H-pyrrolo[1,2-a]imidazol-3-yl)-[1,2,4]triazolo[1,5-a]pyridine], the IC50 in the experiment on TGF-β (setting [1]) is 100 to 1000 nM; in the experiment with GDF8, less than 50 nM. For `Fc1ccc(-c2nc3n(c2-c2ccc4ncnn4c2)CCC3)c(F)c1F` [Compound 15, 6-(2-(2,3,4-trifluorophenyl)-6,7-dihydro-5H-pyrrolo[1,2-a]imidazol-3-yl)-[1,2,4]triazolo[1,5-a]pyridine], in that order: more than 1000 nM and 100 to 1000 nM. Taken in the same sequence, the figures for `Fc1cc(-c2nc3n(c2-c2ccc4ncnn4c2)CCC3)cc(F)c1F` [Compound 16, 6-(2-(3,4,5-trifluorophenyl)-6,7-dihydro-5H-pyrrolo[1,2-a]imidazol-3-yl)-[1,2,4]triazolo[1,5-a]pyridine] were more than 1000 nM and 100 to 1000 nM. Regarding `Fc1cc(F)c(F)c(-c2nc3n(c2-c2ccc4ncnn4c2)CCC3)c1` [Compound 17, 6-(2-(2,3,5-trifluorophenyl)-6,7-dihydro-5H-pyrrolo[1,2-a]imidazol-3-yl)-[1,2,4]triazolo[1,5-a]pyridine], the values for the IC50 in the experiment on TGF-β (setting [1]) and in the experiment with GDF8 were more than 1000 nM and 100 to 1000 nM, respectively.

In the case of `Fc1cc(-c2nc3n(c2-c2ccc4ncnn4c2)CCC3)c(F)cc1Cl` [Compound 18, 6-(2-(4-chloro-2,5-difluorophenyl)-6,7-dihydro-5H-pyrrolo[1,2-a]imidazol-3-yl)-[1,2,4]triazolo[1,5-a]pyridine], the IC50 in the experiment with TGF-β (setting [1]) is more than 1000 nM; in the experiment with GDF8 it was 100 to 1000 nM. For `Fc1cc(-c2nc3n(c2-c2ccc4nccn4c2)CCC3)c(F)cc1Cl` [Compound 19, 6-(2-(4-chloro-2,5-difluorophenyl)-6,7-dihydro-5H-pyrrolo[1,2-a]imidazol-3-yl)imidazo[1,2-a]pyridine], the IC50 with TGF-β (setting [1]) and with GDF8 was more than 1000 nM throughout.

In the case of `CC(C)c1nnc2ccc(-c3c(-c4cc(F)c(Cl)cc4F)nc4n3CCC4)cn12` [Compound 20, 6-(2-(4-chloro-2,5-difluorophenyl)-6,7-dihydro-5H-pyrrolo[1,2-a]imidazol-3-yl)-3-isopropyl-[1,2,4]triazolo[4,3-a]pyridine], the IC50 in the experiment on TGF-β (setting [1]) and in the experiment on GDF8 was more than 1000 nM throughout.

Regarding `CC(C)c1nnc2ccc(-c3c(-c4cc(F)c(F)cc4F)nc4n3CCC4)cn12` [Compound 21, 3-isopropyl-6-(2-(2,4,5-trifluorophenyl)-6,7-dihydro-5H-pyrrolo[1,2-a]imidazol-3-yl)-[1,2,4]triazolo[4,3-a]pyridine], the IC50 in the experiment on TGF-β (setting [1]) and in the experiment on GDF8 was more than 1000 nM in each case. With `CC(C)c1nnc2ccc(-c3c(-c4cc(F)cc(F)c4F)nc4n3CCC4)cn12` [Compound 22, 3-isopropyl-6-(2-(2,3,5-trifluorophenyl)-6,7-dihydro-5H-pyrrolo[1,2-a]imidazol-3-yl)-[1,2,4]triazolo[4,3-a]pyridine], the IC50 in the experiment with TGF-β (setting [1]) and in the experiment on GDF8 was more than 1000 nM each time. For the molecule `CC(C)c1nnc2ccc(-c3c(-c4ccc(F)c(F)c4F)nc4n3CCC4)cn12` [Compound 23, 3-isopropyl-6-(2-(2,3,4-trifluorophenyl)-6,7-dihydro-5H-pyrrolo[1,2-a]imidazol-3-yl)-[1,2,4]triazolo[4,3-a]pyridine], the IC50 in the experiment with TGF-β (setting [1]) and in the experiment on GDF8 was more than 1000 nM each time. For the molecule `Cc1cc(-c2nc3n(c2-c2ccc4ncnn4c2)CCC3)cc(C)c1Cl` [Compound 24, 6-(2-(4-chloro-3,5-dimethylphenyl)-6,7-dihydro-5H-pyrrolo[1,2-a]imidazol-3-yl)-[1,2,4]triazolo[1,5-a]pyridine], the IC50 in the experiment with TGF-β (setting [1]) and in the experiment on GDF8 was more than 1000 nM in each case. As for `Cc1cc(-c2nc3n(c2-c2ccc4nccn4c2)CCC3)cc(C)c1Cl` [Compound 25, 6-(2-(4-chloro-3,5-dimethylphenyl)-6,7-dihydro-5H-pyrrolo[1,2-a]imidazol-3-yl)imidazo[1,2-a]pyridine], the IC50 in the experiment with TGF-β (setting [1]) and in the experiment on GDF8 was more than 1000 nM each time. For the molecule `Cc1ccc(-c2nc3n(c2-c2ccc4ncnn4c2)CCC3)c(F)c1F` [Compound 26, 6-(2-(2,3-difluoro-4-methylphenyl)-6,7-dihydro-5H-pyrrolo[1,2-a]imidazol-3-yl)-[1,2,4]triazolo[1,5-a]pyridine], the IC50 in the experiment on TGF-β (setting [1]) and in the experiment with GDF8 was more than 1000 nM in each case. `Cc1ccc(-c2nc3n(c2-c2ccc4nccn4c2)CCC3)c(F)c1F` [Compound 27]: the IC50 in the experiment on TGF-β (setting [1]) and in the experiment on GDF8 was more than 1000 nM throughout. On to `Cc1cc(-c2nc3n(c2-c2ccc4ncnn4c2)CCC3)c(F)cc1Cl` [Compound 28, 6-(2-(4-chloro-2-fluoro-5-methylphenyl)-6,7-dihydro-5H-pyrrolo[1,2-c]imidazol-3-yl)-[1,2,4]triazolo[1,5-c]pyridine], for which the IC50 in the experiment with TGF-β (setting [1]) and in the experiment with GDF8 was more than 1000 nM each time. In the case of `Cc1cc(-c2nc3n(c2-c2ccc4nccn4c2)CCC3)c(F)cc1Cl` [Compound 29], the IC50 in the experiment on TGF-β (setting [1]) and in the experiment on GDF8 was more than 1000 nM in each case. In the case of `Cc1cccc(-c2nc3n(c2-c2ccc4ncsc4c2)CCC3)n1` [Compound 364, 6-(2-(6-methylpyridin-2-yl)-6,7-dihydro-5H-pyrrolo[1,2-a]imidazol-3-yl)benzo[d]thiazole], the IC50 in the experiment on TGF-β (MPC-11, read-out: TGF-β: inhibition of TGF-β signaling, TGF-β pSMAD (MPC-11), p-SMAD3 (Ser423/425) AlphaScreen in cell lysate, TGF-β stimulation) is less than 50 nM.
